Measurements as given in ChEMBL document CHEMBL3044654, “Sensitivity of four isolates of Clonostachys rosea to pesticides used in the strawberry crop in Brazil” (2012).

Tests used:
Assay type in all cases: functional
Clonostachys rosea [1] = assay: Toxicity against Bionectria ochroleuca assessed as inhibition of mycelial growth at 0.005 to 0.033 ug/ml
Clonostachys rosea [2] = assay: Toxicity against Bionectria ochroleuca assessed as inhibition of conidial germination at 0.005 to 0.033 ug/ml
Clonostachys rosea [3] = assay: Toxicity against Bionectria ochroleuca I62 assessed as inhibition of mycelial growth at 0.006 to 0.037 mg/ml measured every 24 hr intervals over 192 hr
Clonostachys rosea [4] = assay: Toxicity against Bionectria ochroleuca I61 assessed as inhibition of mycelial growth at 0.006 to 0.037 mg/ml measured every 24 hr intervals over 192 hr
Clonostachys rosea [5] = assay: Toxicity against Bionectria ochroleuca I60 assessed as inhibition of mycelial growth at 0.006 to 0.037 mg/ml measured every 24 hr intervals over 192 hr
Clonostachys rosea [6] = assay: Toxicity against Bionectria ochroleuca assessed as inhibition of conidial germination at 0.006 to 0.037 ug/ml measured every 24 hr intervals over 192 hr
Clonostachys rosea [7] = assay: Toxicity against Bionectria ochroleuca assessed as inhibition of mycelial growth at 0.006 to 0.037 ug/ml measured every 24 hr intervals over 192 hr
Clonostachys rosea [8] = assay: Toxicity against Bionectria ochroleuca I19 assessed as inhibition of mycelial growth at 0.006 to 0.037 mg/ml measured every 24 hr intervals over 192 hr
Clonostachys rosea [9] = assay: Toxicity against Bionectria ochroleuca I60 assessed as inhibition of conidial germination at 0.12 to 0.75 mg/ml measured every 24 hr intervals over 192 hr
Clonostachys rosea [10] = assay: Toxicity against Bionectria ochroleuca assessed as inhibition of conidial germination at 0.12 to 0.75 mg/ml measured every 24 hr intervals over 192 hr
Clonostachys rosea [11] = assay: Toxicity against Bionectria ochroleuca I19 assessed as inhibition of conidial germination at 0.12 to 0.75 mg/ml measured every 24 hr intervals over 192 hr
Clonostachys rosea [12] = assay: Toxicity against Bionectria ochroleuca I62 assessed as inhibition of conidial germination at 0.12 to 0.75 mg/ml measured every 24 hr intervals over 192 hr
Clonostachys rosea [13] = assay: Toxicity against Bionectria ochroleuca I61 assessed as inhibition of conidial germination at 0.12 to 0.75 mg/ml measured every 24 hr intervals over 192 hr
Clonostachys rosea [14] = assay: Toxicity against Bionectria ochroleuca assessed as inhibition of mycelial growth at 0.12 to 0.75 mg/ml measured every 24 hr intervals over 192 hr
Clonostachys rosea [15] = assay: Toxicity against Bionectria ochroleuca assessed as inhibition of conidial germination at 0.009 to 0.055 ug/ml
Clonostachys rosea [16] = assay: Toxicity against Bionectria ochroleuca assessed as inhibition of mycelial growth at 0.009 to 0.055 ug/ml
Clonostachys rosea [17] = assay: Toxicity against Bionectria ochroleuca assessed as inhibition of conidial germination at 0.011 to 0.066 mg/ml
Clonostachys rosea [18] = assay: Toxicity against Bionectria ochroleuca assessed as inhibition of mycelial growth at 0.011 to 0.066 mg/ml
Clonostachys rosea [19] = assay: Toxicity against Bionectria ochroleuca assessed as inhibition of conidial germination at 0.25 to 1.50 mg/ml measured every 24 hr intervals over 192 hr
Clonostachys rosea [20] = assay: Toxicity against Bionectria ochroleuca I62 assessed as inhibition of mycelial growth at 0.25 to 1.50 mg/ml measured every 24 hr intervals over 192 hr
Clonostachys rosea [21] = assay: Toxicity against Bionectria ochroleuca I61 assessed as inhibition of mycelial growth at 0.25 to 1.50 mg/ml measured every 24 hr intervals over 192 hr
Clonostachys rosea [22] = assay: Toxicity against Bionectria ochroleuca I60 assessed as inhibition of mycelial growth at 0.25 to 1.50 mg/ml measured every 24 hr intervals over 192 hr
Clonostachys rosea [23] = assay: Toxicity against Bionectria ochroleuca I61 assessed as inhibition of conidial germination at 0.25 to 1.50 mg/ml measured every 24 hr intervals over 192 hr
Clonostachys rosea [24] = assay: Toxicity against Bionectria ochroleuca I19 assessed as inhibition of mycelial growth at 0.25 to 1.50 mg/ml measured every 24 hr intervals over 192 hr
Clonostachys rosea [25] = assay: Toxicity against Bionectria ochroleuca assessed as inhibition of mycelial growth at 0.25 to 1.50 mg/ml measured every 24 hr intervals over 192 hr
Clonostachys rosea [26] = assay: Toxicity against Bionectria ochroleuca I62 assessed as inhibition of conidial germination at 0.25 to 1.50 mg/ml measured every 24 hr intervals over 192 hr

O=C(O)CNCP(=O)(O)O [GLYPHOSATE]
growth inhibition (GI) (Clonostachys rosea [1]): 3.6% | inhibition (INH) (Clonostachys rosea [2]): 2.2%

CN1COCN(Cc2cnc(Cl)s2)/C1=N\[N+](=O)[O-] [THIAMETHOXAM]
growth inhibition (GI) (Clonostachys rosea [3]): 1.82% | growth inhibition (GI) (Clonostachys rosea [4]): 0.51% | growth inhibition (GI) (Clonostachys rosea [5]): 2.65% | inhibition (INH) (Clonostachys rosea [6]): 1% | growth inhibition (GI) (Clonostachys rosea [7]): 0.1% | growth inhibition (GI) (Clonostachys rosea [8]): 0.36%

COC(=O)NC(=S)Nc1ccccc1NC(=S)NC(=O)OC [THIOPHANATE METHYL]
inhibition (INH) (Clonostachys rosea [9]): 37.4% | inhibition (INH) (Clonostachys rosea [10]): 31% | inhibition (INH) (Clonostachys rosea [11]): 40.8% | inhibition (INH) (Clonostachys rosea [12]): 69.3% | inhibition (INH) (Clonostachys rosea [13]): 39.4% | growth inhibition (GI) (Clonostachys rosea [14]): 90%

CCCN(CCC)c1c([N+](=O)[O-])cc(C(F)(F)F)cc1[N+](=O)[O-] [TRIFLURALIN]
inhibition (INH) (Clonostachys rosea [15]): 2.2% | growth inhibition (GI) (Clonostachys rosea [16]): 3.6%

CCc1cccc(C)c1N(C(=O)CCl)[C@@H](C)COC [S-METOLACHLOR]
inhibition (INH) (Clonostachys rosea [17]): 2.2% | growth inhibition (GI) (Clonostachys rosea [18]): 3.6%

CCOC(=O)CC(SP(=S)(OC)OC)C(=O)OCC (stereo unspecified) [MALATHION]
inhibition (INH) (Clonostachys rosea [19]): 10% | growth inhibition (GI) (Clonostachys rosea [20]): 29.32% | growth inhibition (GI) (Clonostachys rosea [21]): 32.67% | growth inhibition (GI) (Clonostachys rosea [22]): 34.59% | inhibition (INH) (Clonostachys rosea [23]): 12.7% | growth inhibition (GI) (Clonostachys rosea [24]): 36.87% | growth inhibition (GI) (Clonostachys rosea [25]): 22% | inhibition (INH) (Clonostachys rosea [26]): 14.9%
